These results are taken from ChEMBL document CHEMBL3507680, “University of Dundee, Gates Library screen for HepG2 cell viability”.

This data set can be described thus: Human HepG2 cell viability assay in 384 well format. The format is toxicity, cell-based. Details: dose 125 nL, time 70.5 hour; concentration not given beside the values. The conditions noted are these: HepG2 cells, read-out: Inhibition.

Regarding `CC1CCc2c(c3ccccc3[nH]c2=O)O1` (stereo not given), the cytotoxicity at 70.5 h was -6.86%. To `Cn1c2c(c(=O)c3ccccc31)CCC(C)(C)O2` belongs -9.34%; to `Cn1cccc1C(=O)N1CCCC2(CCCN2S(C)(=O)=O)C1` (stereo not given), -8.52%; to `CC(=O)N1CC2(CCN(C(=O)CO)CC2)c2cc(C)ccc21`, -4.93%.

With `CS(=O)(=O)N1C[C@@H]2CCN(C(=O)c3ccco3)[C@@H]2C1`, the cytotoxicity at 70.5 h is -2.6%.

Consider `CS(=O)(=O)N1C[C@@H]2COC[C@@H](CC(=O)N3CCCCO3)[C@@H]2C1`, for which the cytotoxicity at 70.5 h worked out at 5.89%. `Cc1ccnc(OC[C@@]23CCO[C@@H]2CCN(S(C)(=O)=O)C3)n1`: the cytotoxicity at 70.5 h is -7.11%. The figure for `CCOCC1CN(CCc2ccccc2)Cc2c1cnn2C` (stereo not given) is 10.7%; for `O=C(Cc1ccccn1)N1CCC2(CCCN(CC3CCOCC3)C2)C1` (stereo not given) it is -0.432%. The figure for `Cc1ccc2c(c1)C1(CCN(S(C)(=O)=O)CC1)CN2C(=O)N(C)C` is 4.29%; for `Cc1nc([C@@H]2C[C@H]3CN(Cc4scnc4C)C[C@H]3O2)no1` it is 5.82%; for `Cc1nc(N2CCOCC2)nc2c1COCC21CCN(CC(C)C)C1` (stereo not given) it is -5.39%. To `CCCS(=O)(=O)N1Cc2nccn2CC(Cn2cccn2)C1` (stereo not given) belongs -2.32%. Regarding `CCOCC1CN(CCOCc2ccccc2)Cc2c1cnn2C` (stereo not given), the cytotoxicity at 70.5 h was -3.18%.

For `O=C(C1CCOC1)N1C[C@H]2CN(c3ccccc3)C(=O)[C@H]2C1` (stereo not given in full), the cytotoxicity at 70.5 h is -4.87%. On to `COc1nn(C)c2c1CCCN(S(=O)(=O)c1cccc(F)c1)C2`, for which the cytotoxicity at 70.5 h was -4.75%. Regarding `c1ccc(NC[C@@H]2CCC[C@@H]3CN(Cc4csnn4)C[C@@H]32)nc1`, the cytotoxicity at 70.5 h was -5.27%. As to `Cn1cnc(S(=O)(=O)N2CCO[C@H]3[C@@H](OCC4CC4)CC[C@@H]32)c1`, the cytotoxicity at 70.5 h came out at 11.1%. The figure for `O=C(NC[C@H]1OC[C@@H]2CCN(c3ccccn3)C[C@@H]21)c1ccco1` is -1.04%; for `CCO[C@@H]1CC[C@H]2[C@H]1OCCN2S(=O)(=O)c1cn(C)cn1` it is -1.5%; for `O=C1Nc2ccccc2CC12CCN(CCO)C2` (stereo not given) it is -6.04%.

As for `O=C(c1c2c(N3CCCC3)ncnc2n2ccccc12)N1CCOCC1`, the cytotoxicity at 70.5 h is -5.97%. Consider `CS(=O)(=O)N1CCOCC12CCN(c1nncs1)CC2`, for which the cytotoxicity at 70.5 h was found to be 5.03%. The figure for `O=C(c1cscn1)N1CC[C@@H]2[C@@H]1CCN2c1ccccn1` is -2.32%. Consider `O=C(Cn1nc(N2CCOCC2)ccc1=O)Nc1nccs1`, for which the cytotoxicity at 70.5 h stood at 15%. To `CCOC(=O)N1CCN(C(=O)c2snnc2-c2ccc(OC)cc2)CC1` belongs -11.6%; to `CCN1CCc2c(sc3c2C(=O)NC(/C=C/c2ccco2)N3)C1` (stereo not given), 43.7%. For the molecule `O=C(c1cn(-c2ccccc2Cl)nn1)N1CCSCC1`, the cytotoxicity at 70.5 h stood at 15.4%. To `COc1cccc(CNC(=O)c2cccnc2N)c1` belongs 6.88%. To `Nc1ncccc1C(=O)NCc1ccc(Br)cc1` belongs -2.61%; to `Nc1ncccc1C(=O)NCc1cccc(Cl)c1`, -8.22%. `O=c1[nH]nc2c(N3CCCCCC3)nccn12`: the cytotoxicity at 70.5 h was -8.09%.

Turning to `O=c1[nH]nc2c(N3CCOCC3)nccn12`, the cytotoxicity at 70.5 h is -11.6%. In the case of `COc1ccccc1-c1ccnc2nc(N3CCCCC3)[nH]c(=O)c12`, the cytotoxicity at 70.5 h was -15.7%. To `COCCN1CCn2c(nc3cc(C(=O)NC(C)C)ccc32)C1` belongs -6.96%; to `O=C(O)CNC(=O)Cc1csc(-c2cccc(Cl)c2)n1`, 21.1%.

As to `CC(C)OCCCNC(=O)CN(c1ccc(F)c(F)c1)S(C)(=O)=O`, the cytotoxicity at 70.5 h was -6.87%. The figure for `CC(C)C[C@H](NC(=O)Cc1csc(-c2cccc(Cl)c2)n1)C(=O)O` is 19.2%; for `C[C@H](NC(=O)Cc1csc(-c2cccc(Cl)c2)n1)C(=O)O` it is 19.3%. The figure for `O=C(CC1Cn2ncnc2NC1=O)Nc1ccc(F)c(F)c1` (stereo not given) is -7.69%; for `CC(C)n1[nH]c(=O)c2c1NC(=O)CSC2c1cccc(OCC(N)=O)c1` (stereo not given) it is -11.3%; for `CC(C)n1c(=O)c2sccc2n(CC(=O)Nc2cccc(Cl)c2)c1=O` it is -12.8%. The figure for `O=C(CC1Cn2ncnc2NC1=O)Nc1cccc(C(F)(F)F)c1` (stereo not given) is -11.2%; for `CC1=Nc2c(c(O)nn2C(C)C)C(c2cnn(C)c2)S1` (stereo not given) it is -11%; for `Cc1ccc(C)c(-c2[nH]c3ccccc3c2C(=O)O)c1` it is -12.7%. Consider `COc1ccc(C)cc1-c1[nH]c2ccccc2c1C(=O)O`, for which the cytotoxicity at 70.5 h is -10.2%. The figure for `Cn1c(=O)[nH]c(=O)n2c(CC(=O)Nc3ccc(Cl)c(Cl)c3)cnc12` is -12.5%; for `CCNC(=O)c1ccc2c(c1)nc1n2CCN(C(C)C)C1` it is -9.53%; for `CC(=O)N1CCN(C(=O)c2sc(-c3ccccc3F)nc2C)CC1` it is 16.5%. For `O=C1CC(c2ccsc2)c2sc(C(=O)O)c(-c3ccc(F)cc3)c2N1` (stereo not given), the cytotoxicity at 70.5 h is -4.46%. As to `O=C(CSC1CCc2ccccc2NC1=O)NC1CC1` (stereo not given), the cytotoxicity at 70.5 h was -2.66%. To `O=C(Cn1ccc2c(Cl)cccc21)N1CCCC1` belongs -1.08%.

As for `O=C(CSC1CCc2ccccc2NC1=O)NCCc1ccc(O)cc1` (stereo not given), the cytotoxicity at 70.5 h was -2.27%. On to `CC(C)n1[nH]c(=O)c2c1NC(=O)CC2c1ccc(S(C)(=O)=O)cc1` (stereo not given), for which the cytotoxicity at 70.5 h was -17.1%. The figure for `O=C(CSC1CCc2ccccc2NC1=O)NCc1ccccc1` (stereo not given) is 6.38%. Consider `NC(=O)c1ccc(NC(=O)Cn2cc(-c3ccccc3)ncc2=O)cc1`, for which the cytotoxicity at 70.5 h is -17.2%. The figure for `Cn1cc(NC(=O)Cn2cc(-c3ccccc3)ncc2=O)cn1` is 19.6%; for `Cc1c(C2CC(=O)Nc3c2cnn3C(C)(C)C)cnn1C` (stereo not given) it is -11.8%. The figure for `Cc1cnc(NC(=O)CSC2CCc3ccccc3NC2=O)s1` (stereo not given) is 1.54%. To `Cc1nc(-c2ccccc2F)sc1C(=O)N1CCC(=O)CC1` belongs -8.75%. In the case of `O=C1CC(c2ccc(O)cc2)c2sc(C(=O)O)c(-c3ccccc3)c2N1` (stereo not given), the cytotoxicity at 70.5 h is -16.3%.

Consider `CC(=O)c1cccc(NC(=O)Cn2cc(-c3ccccc3)ncc2=O)c1`, for which the cytotoxicity at 70.5 h is -6.47%. Regarding `O=C(Cn1cc(-c2ccccc2)ncc1=O)NC1CCCCC1`, the cytotoxicity at 70.5 h came to 5.64%. The figure for `Cc1noc(C)c1CNCC1COCc2c(-c3ccoc3)nnn2C1` (stereo not given) is -9.07%. In the case of `CCc1ncnc2c1CCN(Cc1nccs1)CC2`, the cytotoxicity at 70.5 h is -7.4%. The figure for `CN(C)c1ncnc2c1CCN(Cc1nccs1)CC2` is -6.81%. The figure for `O=C(C[C@@H]1COC[C@H]2CN(C3CCCC3)C[C@@H]12)N1CCCCO1` is -0.83%. `O=S(=O)(NC[C@]12COC[C@H]1CN(CCc1ccccc1)C2)C1CC1`: the cytotoxicity at 70.5 h is -2.87%. For the molecule `Cc1nc(N2CCCC2)nc2c1CCN(Cc1ccsc1)CC2`, the cytotoxicity at 70.5 h came to 6.56%. In the case of `CCN1C[C@@H]2[C@@H](OC)CCN(C(=O)c3cc(C)nn3CC)[C@@H]2C1`, the cytotoxicity at 70.5 h was 8.5%. The figure for `CNC(=O)[C@H]1C[C@H]2OCC[C@H]2N(CCOc2ccc(Cl)cc2)C1` is -1.59%; for `c1ncn(Cc2cn3c(n2)CN(CC2CCCCC2)CC3)n1` it is -3.74%. To `O=C(Cc1ccsc1)N1CCCC2(COCCN(CC3CC3)C2)C1` (stereo not given) belongs 1.23%. With `O=C1[C@H]2CN(CC3CCOCC3)C[C@H]2CN1Cc1cccc(F)c1`, the cytotoxicity at 70.5 h was 4.65%. To `CCOCC(=O)N1CCC2(CC1)COC(COCc1ccccn1)C2` (stereo not given) belongs 4.72%; to `COCC(=O)N1CCC2(CC1)COC(COCc1ccccn1)C2` (stereo not given), 1.98%; to `Cc1nc(N2CCOCC2)nc2c1CCN(Cc1ccsc1)CC2`, 1.35%. The figure for `CCCS(=O)(=O)N1Cc2nccn2CC(CN(C)C)C1` (stereo not given) is -10.3%; for `Cc1noc([C@@H]2C[C@H]3CN(Cc4scnc4C)C[C@H]3O2)n1` it is -4.75%. With `COc1cccc(C(=O)N2CC[C@@H]3[C@H](CC2)N(C)CCS3(=O)=O)c1`, the cytotoxicity at 70.5 h was -5.98%.

For `Cc1nc(N2CCCC2)nc2c1CCN(Cc1ccoc1)CC2`, the cytotoxicity at 70.5 h was -6.88%. Take `O=C(c1ccoc1)N1CCC2(CC1)COC(COc1ccccn1)C2` (stereo not given): the cytotoxicity at 70.5 h was -4.94%. To `CN(C)C(=O)[C@@H]1C[C@H]2OCC[C@H]2N(CCOc2ccc(Cl)cc2)C1` belongs -4.26%; to `CCOCc1cnc2n1CCN(Cc1scnc1C)C2C` (stereo not given), -3.25%. The figure for `CN(C)[C@@H]1CCN(C(=O)NC2CCCC2)[C@H]1Cc1ccncc1` is -9.4%; for `Cc1cccc(CN2C[C@H]3CCC[C@@]3(COCc3csc(C)n3)C2)n1` it is -6.32%; for `Cc1cccc(N2CCC3(CCN(Cc4ccccn4)CC3)CC2)n1` it is -9.07%. To `Cc1cccc(CN2CCc3c(COCC(=O)N(C)C)nn(C)c3C2)n1` belongs 0.676%; to `CN(C)Cc1cn2c(n1)CN(CC1CCCC1)CC2`, -6.79%.

In the case of `CC(C)(C)NC[C@@H]1CCC[C@@H]2CN(Cc3csnn3)C[C@@H]21`, the cytotoxicity at 70.5 h is -2.73%.

On to `Cc1cnc(N2CC[C@@H]3CN(Cc4ccncc4)CCO[C@@H]3C2)nc1`, for which the cytotoxicity at 70.5 h was 8.21%. For `c1ccc(N2CC[C@@H]3CN(Cc4ccncc4)CCO[C@@H]3C2)cc1`, the cytotoxicity at 70.5 h is -1.73%. Regarding `Cc1ncsc1CN1CCn2c(COc3cccnc3)cnc2C1C` (stereo not given), the cytotoxicity at 70.5 h was -2.69%. For `CN(Cc1cccnc1)C[C@@H]1OC[C@H]2CN(Cc3ccoc3)CC[C@H]21`, the cytotoxicity at 70.5 h is -0.956%.

Turning to `Cc1cc(CN2C[C@@H](N3CCN(C)CC3)[C@H]3OCCC[C@H]32)oc1C`, the cytotoxicity at 70.5 h is -4.18%.
